Test results from patent US12153049B2, “BCR-ABL variants” (Quest Diagnostics Investments LLC, priority 2008, dated 2024).
Several values for one entry are separate records, joined by “and”; a condition that tells them apart may be missing. Identical values can stand only once. Entries after “also recorded” stand apart in the source; their conditions may differ. Counter-ions that a name gives are not always drawn. Like-named read-outs stand apart in the source and are kept apart here.

Key:
[1] = tested on: K562 CML cells (empty vector); assay: MTT cell proliferation assay, K562 cells with empty vector; format: cell-based, human; settings: for IC50: Empty vector pCMV/GFP, drug 48 h, read-out: IC50 (median-effect dose, MTT)
Protocol: (§1) The effect of the drugs on cell proliferation was measured by MTT assay (FIG. 18A, right panel; mean±S.D; n=3). Dose response to cell death curves of K562 cells exposed to drugs were generated with the CalcuSyn® software package (Biosoft, Ferguson, MO) for each of at least three experiments.

[2] = tested on: K562 cells transfected with pMIG/35 INS bcr-abl; assay: MTT cell proliferation/viability assay, K562 cells transfected with pMIG/35 INS bcr-abl; format: cell-based, human; settings: for IC50: read-out: IC50 (median-effect dose, MTT)
Protocol: as §1, with “K562 cells were cotransfected with an increasing amount (0 to 100 ng) of plasmid pMIG/35 INS BCR-ABL and 100 ng of either pMIG/BCR-ABL1p210 or empty plasmid (pMIG). […] The” for “The”

[3] = tested on: K562 cells transfected with pMIG/BCR-ABL1p210; assay: MTT cell proliferation assay, K562 cells transfected with pMIG/BCR-ABL1p210; format: cell-based, human; settings: for IC50: pMIG/BCR-ABL1p210 0.1 μg DNA, K562 cells, drug 48 h, read-out: IC50 (median-effect dose, MTT); for Resistance to the drug caused by wild-type BCR-ABL1p210 expression: K562 cells transfected with BCR-ABL1p210
Protocol: as §1, with “K562 cells were cotransfected with an increasing amount (0 to 100 ng) of plasmid pMIG/35 INS BCR-ABL and 100 ng of either pMIG/BCR-ABL1p210 or empty plasmid (pMIG). […] The” for “The”

[4] = tested on: tyrosine kinase (TK) activity in K562 cells (empty vector); assay: Universal Tyrosine Kinase Assay on cell extract, K562 empty vector; format: cell-based, human; settings: relative to no-drug control, imatinib 1.2 μM, nilotinib 5 nM, dasatinib 5 nM, MK 0457 2 μM, homoharringtonine X μM
Protocol: (§2) K562 cells were cotransfected with increasing amounts of plasmid encoding pMIG/35 INS bcr-abl and either 100 ng of pMIG/BCR-ABL1p210 or the same amount of control vector (empty vector plasmid). […] Rabbit polyclonal IgG anti-Lyn, anti-Aurora A, and anti-Aurora B were obtained from Santa Cruz Biotechnology, (Santa Cruz, CA); rabbit polyclonal IgG anti-p-Src, anti-p-StatS, and anti-p-Crkl were obtained from Cell Signaling (Danvers, MA). Goat anti-rabbit PE (Santa Cruz Biotechnology) was used as the secondary antibody. LYN, p-CRKL, p-SRC, p-STATS, and Aurora A and B status were monitored. All experiments were repeated at least three times. Asterisk indicates p<0.05 relative to Control (empty vector).
(§3) Tyrosine kinase assay was performed using the Universal Tyrosine Kinase Assay Kit (GenWay Biotech, San Diego, CA) according to the manufacturer's instruction. The universal protein tyrosine kinase substrate peptide, Poly (Glu-Tyr) (4:1, 20-50 kDa) was pre-coated onto 96-well microtiter plates. Serial dilutions of prepared cell extract and 5-point standards (with known tyrosine kinase activities) were added to the plate in triplicates along with an ATP-containing kinase buffer. After incubation at 37° C. for 30 min to allow phosphorylation of tyrosine residues, the sample solution was removed and the wells washed with Washing buffer (PBS with 0.05% Tween-20) and blocked with Blocking solution. Anti-phosphotyrosine (PY20)-horse radish peroxidase (HRP) conjugate was then added to the plate. After incubation at 37° C. for 30 min, the PY20-HRP solution was replaced by HRP substrate solution (TMBZ). For colorimetric determination of PTK activity, the sample's specific absorbance at 450 nm was calculated from the standard curve.

[5] = tested on: tyrosine kinase (TK) activity in K562 cells transfected with BCR-ABL1p210; assay: Universal Tyrosine Kinase Assay on cell extract, K562 BCR-ABL1p210; format: cell-based, human; settings: relative to no-drug control, imatinib 1.2 μM, nilotinib 5 nM, dasatinib 5 nM, MK 0457 2 μM, homoharringtonine X μM
Protocol: as §2, §3

[6] = tested on: tyrosine kinase (TK) activity in K562 cells transfected with BCR-ABL1 35INS; assay: Universal Tyrosine Kinase Assay on cell extract, K562 BCR-ABL1 35INS; format: cell-based, human
Protocol: as §2, with “times.” for “times. Asterisk indicates p<0.05 relative to Control (empty vector).”
as §3

[7] = tested on: caspase-3 activation in K562 cells; assay: Caspase-3 activation (apoptosis) assay in transfected K562 cells; format: cell-based, human; settings: for Effect of 35 INS BCR-ABL gene transfer on drug-induced caspase-3 activation: K562 cells transfected with 35 INS BCR-ABL
Protocol: To perform caspase assays, K562 cells were transiently transfected in 6-well dishes using the above procedure. […] Typically, 15-25 μg of lysates were analyzed for protease activity by continuously measuring the release of fluorogenic substrate Ac-DEVD-aminofluoromethylcoumarin product from EMD (San Diego, CA) at 37° C., as described (Capdeville et al., Nat. Rev. Drug Discov. 2002, 1:493).
Induction of apoptosis measured by caspase-3 activation (mean [SD]; n=3) in K562 cells transfected with the different plasmids as described above and shown in FIG. 18B.
(§4) Lysates were prepared at the times indicated and examined by caspase-3 assay (left) or by immunoblots using specific antibodies for BIM and actin (right) (see FIGS. 22A-22B).

[8] = tested on: phosphorylation of CrkL and other substrates in K562 cells transfected with pMIG/35 INS bcr-abl; assay: Phosphorylation of BCR-ABL substrates, K562 cells transfected with pMIG/35 INS bcr-abl; format: cell-based, human
Protocol: (§5) The effect of a compound on the kinase activity of the BCR-ABL is assessed by monitoring tyrosine phosphorylation profile of the cellular proteins. […] Genetically modified cells comprising recombinant bcr-abl or variant so of bcr-abl including the splice variant are grown in presence of various amounts of a compound for treating CML patients. […] Amount of phosphorylated CrkL protein can be measured by using detectably labeled anti-phospho CrkL antibody. In one embodiment, the detectable label is phycoerythrin. The signal can be detected by Flow cytometer. Alternatively, the signal can be detected by Fluorescent Microtiter plate reader.
as §2, with “times.” for “times. Asterisk indicates p<0.05 relative to Control (empty vector).”

[9] = tested on: phosphorylation of CrkL, LYN, pSRC, pSTAT5, Aurora A and B in K562 cells; assay: Phosphorylation of BCR-ABL substrates, K562 cells; format: cell-based, human
Protocol: as §5
as §2, with “times.” for “times. Asterisk indicates p<0.05 relative to Control (empty vector).”

[10] = tested on: BIM expression in K562 cells; assay: BIM induction by immunoblot in K562 cells; format: cell-based, human; settings: 24 to 48 hours' incubation
Protocol: as §4

[11] = tested on: CML patients; settings: cited from earlier work
[12] = BCR-ABL1 35INS, relative to no-drug control, imatinib 1.2 μM, nilotinib 5 nM, dasatinib 5 nM, MK 0457 2 μM, homoharringtonine X μM

| SMILES | IC50 ([1]; Homo sapiens) [nM] | IC50 ([3]; Homo sapiens) [nM] | Relative tyrosine kinase activity [4] [%] | Relative tyrosine kinase activity [5] [%] | Relative tyrosine kinase activity [6, 12] [%] | Resistance to the drug caused by wild-type BCR-ABL1p210 expression [3] | Effect of 35 INS BCR-ABL gene transfer on drug-induced caspase-3 activation [7] | Cell death in K562 cells [1] | Effect on Aurora A and B [9] | other results |
| --- | --- | --- | --- | --- | --- | --- | --- | --- | --- | --- |
| COC(=O)C[C@](O)(CCCC(C)(C)O)C(=O)O[C@@H]1C(OC)=C[C@]23CCCN2CCc2cc4c(cc2[C@H]13)OCO4 [HHT, homoharringtonine] | 63 | 54 | 59.8 | 79.2 | 75.4 |  |  |  |  | IC50 ([2]; Homo sapiens, K562, 48 h, pMIG/35 INS bcr-abl 0.01 μg DNA, K562 cells, drug 48 h): 61 nM; IC50 ([2]; Homo sapiens, K562, 48 h, pMIG/35 INS bcr-abl 0.05 μg DNA, K562 cells, drug 48 h): 49 nM; IC50 ([2]; Homo sapiens, K562, 48 h, pMIG/35 INS bcr-abl 0.1 μg DNA, K562 cells, drug 48 h): 54 nM |
| Cc1cc(Nc2cc(N3CCN(C)CC3)nc(Sc3ccc(NC(=O)C4CC4)cc3)n2)n[nH]1 [MK-0457] |  |  | 87.3 | 96.7 | 100 | did not induce resistance | did not affect the rate of caspase-3 activation |  |  | IC50 [1]: 1810 nM; Resistance to the drug caused by 35 INS BCR-ABL expression (MTT) ([2]; K562 cells transfected with pMIG/35 INS bcr-abl): did not induce resistance; IC50 ([2]; pMIG/35 INS bcr-abl 0.01 μg DNA, K562 cells, drug 48 h): 2000 nM; IC50 ([2]; pMIG/35 INS bcr-abl 0.05 μg DNA, K562 cells, drug 48 h): 1980 nM; IC50 ([2]; pMIG/35 INS bcr-abl 0.1 μg DNA, K562 cells, drug 48 h): 1540 nM; IC50 [3]: 1790 nM; Effect of 35 INS BCR-ABL expression on inhibition of kinases/phosphorylation by the drug [8]: no effect on inhibition |
| Cc1cn(-c2cc(NC(=O)c3ccc(C)c(Nc4nccc(-c5cccnc5)n4)c3)cc(C(F)(F)F)c2)cn1 [Nilotinib, nilotinib] | 42 | 42 | 23.4 | 33.1 |  | did not induce resistance | induced resistance | induced cell death | no effect | Increase of IC50 with pMIG/35 INS bcr-abl vector [2]: 1.7 fold; IC50 ([2]; Homo sapiens, K562, 48 h): 52 nM; IC50 [2]: 54 nM and 71 nM; Relative tyrosine kinase activity [6]: 76.2%; Relative potency in induction of apoptosis (caspase-3 activation) ([7]; K562 cells): more potent than imatinib; Phosphorylation of CrkL, LYN, pSRC and pSTAT5 [9]: inhibited phosphorylation |
| Cc1nc(Nc2ncc(C(=O)Nc3c(C)cccc3Cl)s2)cc(N2CCN(CCO)CC2)n1 [Dasatinib, dasatinib] | 12 | 11 | 15.6 | 20.6 |  |  |  |  | no effect |  |
| Cc1ccc(NC(=O)c2ccc(CN3CCN(C)CC3)cc2)cc1Nc1nccc(-c2cccnc2)n1 [Imatinib, imatinib mesylate] |  |  |  |  |  | did not induce resistance | induced resistance; also recorded: increase was inhibited | induced cell death |  | Caspase-3 activation over time ([7]; CML K562 cells, continuous treatment): increased with time; BIM expression / induction [10]: expressed at increased levels; Primary resistance rate (failure to achieve any hematologic response) ([11]; accelerated-phase CML): 9%; Secondary resistance rate (hematologic recurrence) ([11]; accelerated-phase CML): 32%; Primary resistance rate (failure to achieve any hematologic response) ([11]; blast-phase CML): 51%; Secondary resistance rate (hematologic recurrence) ([11]; blast-phase CML): 41%; Primary resistance rate (failure to achieve any hematologic response) ([11]; chronic-phase CML): 3%; Secondary resistance rate (hematologic recurrence) ([11]; chronic-phase CML): 22% |
